Measured values: patent US20190321420A1, “METHOD AND COMPOSITION FOR PREVENTING, TREATING OR RELIEVING BONE DISEASES” (GRAPE KING BIO Ltd., priority 2018, published 2019)
Marks after values point to notes of the source that are not given here.

Columns and labels:
[1] = tested on: ovariectomized ICR female mice; assay: Micro-CT bone tissue analysis of the right distal femur in ovariectomized mice (osteoporosis model); format: in vivo; settings: 32nd day after ovariectomy, GKM3/GKS6 205 mg/kg oral gavage once/day for 28 days, Alen 2.5 mg/kg 3 times a week for 28 days, n = 6
[2] = tested on: ovariectomized ICR female mice; assay: Bone mineral density (BMD) of the femur in ovariectomized mice; format: in vivo; settings: right femur, 32nd day after ovariectomy; GKM3/GKS6 205 mg/kg oral gavage once/day for 28 days; Alen 2.5 mg/kg 3 times a week for 28 days; n = 6
Method: In this embodiment, GKM3 and GKS6 powders were each prepared in a 0.5% (w/v) carboxymethylcellulose (CMC) solution as a suspension with a concentration of 205 mg/mL The vehicle group used 0.5% (w/v) CMC solution.
Because bone metabolism is closely related to estrogen, mice with bilateral ovariectomy were used as a model for studying osteoporosis in postmenopausal animals. After the recovery period of 1 to 2 weeks after the bilateral ovariectomy, mice were randomly assigned to different treatment groups.
In this embodiment, 8-week-old ICR female mice were purchased from BioLASCO Taiwan Co., Ltd., and ovariectomy (OVX) was performed when they were 9 weeks old. […]
Computerized tomography images of the right distal femur of ICR mice were obtained by a micro-computed tomography (micro-CT) scanner (SkyScan 1076, Kontizh, Belgium) with a resolution of 18 μm and were analyzed by a software to obtain the trabecular bone volume density (i.e., bone volume/tissue volume, BV/TV), the trabecular thickness (Tb.Th), the trabecular number (Tb.N), and the trabecular spacing (Tb.Sp). The analyzed position was selected to include the area of 100 pieces under the growth plate but not the cortical bone. […]
The bone density (mass/volume) was detected by the micro-CT. […]
The obtained data in the experiments were analyzed with one-way analysis of variance (one-way ANOVA) and the Duncan's multiple range test. […]

In the case of `NCCCC(O)(P(=O)(O)O)P(=O)(O)O` [Alen, alendronate], the “Femur Tb.N” value [1] is reported as 3.3 ± 0.1 No./mm, the “Femur Tb.Sp” value [1] is reported as 232.9 ± 25.9 μm and the “Femur Tb.Th” value [1] is reported as 109.9 ± 3.9 μm. For the same molecule, the “Femur BMD” value [2] was 0.60 ± 0.02* g/cm^3.
